In patent publication US20240270801A1, “EPITOPE PEPTIDE OF HUMAN ALPHA-SYNUCLEIN AND PHARMACEUTICAL COMPOSITION INCLUDING SAID PEPTIDE” (Sumitomo Pharma Co., Ltd., priority 2021, published 2024):
Non-standard residues stand in square brackets, D forms with d. No end group written: not given here. KLH = keyhole limpet hemocyanin; Ahx = NCCCCCC(=O)O

Tests used:
human αSyn = experiment: Antibody-inducing ability in mice: ELISA antibody titer of immune serum with respect to human αSyn; assay type: in vivo, mouse; parameters: key to Antibody titer with respect to human αSyn, relative to control: log titer relative to control conjugate (control = 1); conditions: for Antibody titer with respect to human αSyn (N = 4 − 6, mean ± standard deviation): Example 2, balb/c mice, i.m. twice at 2-week interval, Alum, AJ conjugates 250 μg/mouse, KLH-DMPVDPDN 25 μg/mouse, serum 2 weeks after second administration
Protocol: (§1) Using the various AJ peptide-human αSyn peptide conjugates produced in Example 1, an antibody-inducing ability with respect to human αSyn in mice was evaluated. The various AJ-human αSyn peptide conjugates (250 μg/mouse) or KLH-DMPVDPDN (25 μg/mouse) in physiological saline were intramuscularly administered to balb/c mice (females, 6 weeks old, CLEA Japan, Inc.) twice at a 2-week interval for immunization using aluminum hydroxide (Alum) (InvivoGen, 50 μg/mouse) as an adjuvant. As a negative control, physiological saline (100 μL/mouse) comprising the same amount of aluminum hydroxide was administered twice. Two weeks after the second administration, serum was recovered to evaluate the antibody titer with respect to human αSyn by ELISA.
ELISA was performed by the following method. 96-well plates were coated with human αSyn (Sigma) at 0.2 μg/well. After washing with PBST (Phosphate Buffered Saline comprising 0.05% Tween) once, blocking was performed with 3% skim milk (FUJIFILM Wako Pure Chemical Corporation). After washing with PBST three times, diluted serum was added to cause a reaction at room temperature for 1 hour. Furthermore, after washing with PBST three times, Goat anti-mouse IgG-HRP (abcam) was added to cause a reaction at room temperature for 1 hour. After washing with PBST three times, SureBlue TMB Microwell Peroxidase Substrate (KPL) was added to cause a reaction at room temperature for 10 minutes while light shielding. An equal volume of a TMB Stop Solution (KPL) was added to stop the reaction, and the absorbance at 450 nm was measured. ELISA with respect to aggregated human αSyn was performed by coating with the aggregated human αSyn (Stress Marq) at 15 ng/well instead of human αSyn in the above-mentioned method. […]
The antibody-inducing ability of the produced various human αSyn peptide conjugates with respect to human αSyn and aggregated human αSyn in the mice was evaluated by the method described in Example 2 using the antibody titers with respect to human αSyn and aggregated human αSyn of the mouse immune serum. […] In Table 6, the antibody titer of AJ-p242, AJ-p244, AJ-p347, or AJ-p361 is shown with the antibody titer of AJ-p150 as a control being 1 (logarithm). In addition, the antibody titers of AJ-p229, AJ-p237, and AJ-p298 are shown with the antibody titer of AJ-p54 as a control being 1 (logarithm). […]

aggregated human αSyn = experiment: Antibody-inducing ability in mice: ELISA antibody titer of immune serum with respect to aggregated human αSyn; assay type: in vivo, mouse; conditions: for Antibody titer with respect to aggregated human αSyn (N = 4 − 6, mean ± standard deviation): Example 2, balb/c mice, i.m. twice at 2-week interval, Alum, AJ conjugates 250 μg/mouse, KLH-DMPVDPDN 25 μg/mouse, serum 2 weeks after second administration; for Antibody titer with respect to aggregated human αSyn, relative to control: mice
Protocol: as §1
ELISA was performed by the following method. 96-well plates were coated with human αSyn (Sigma) at 0.2 μg/well. After washing with PBST (Phosphate Buffered Saline comprising 0.05% Tween) once, blocking was performed with 3% skim milk (FUJIFILM Wako Pure Chemical Corporation). After washing with PBST three times, diluted serum was added to cause a reaction at room temperature for 1 hour. Furthermore, after washing with PBST three times, Goat anti-mouse IgG-HRP (abcam) was added to cause a reaction at room temperature for 1 hour. After washing with PBST three times, SureBlue TMB Microwell Peroxidase Substrate (KPL) was added to cause a reaction at room temperature for 10 minutes while light shielding. An equal volume of a TMB Stop Solution (KPL) was added to stop the reaction, and the absorbance at 450 nm was measured. ELISA with respect to aggregated human αSyn was performed by coating with the aggregated human αSyn (Stress Marq) at 15 ng/well instead of human αSyn in the above-mentioned method.
The antibody-inducing ability of the AJ-human αSyn peptide conjugates (AJ-p54, AJ-p54-KLH, and AJ-DMPVDPDN) produced in Example 1 with respect to human αSyn and aggregated human αSyn in mice was evaluated. Physiological saline or the AJ-human αSyn peptide conjugate (250 μg/mouse) was intramuscularly administered to balb/c mice (females, 6 weeks old, CLEA Japan, Inc.) twice at a 2-week interval using Alum (InvivoGen, 50 μg/mouse) as an adjuvant. Furthermore, KLH-DMPVDPDN (25 μg/mouse) was administered using Alum (InvivoGen, 50 μg/mouse) as an adjuvant. Two weeks after the second administration, serum was recovered to evaluate the antibody titer by ELISA. ELISA was performed by the method described in Example 2.
The antibody-inducing ability of the produced various human αSyn peptide conjugates with respect to human αSyn and aggregated human αSyn in the mice was evaluated by the method described in Example 2 using the antibody titers with respect to human αSyn and aggregated human αSyn of the mouse immune serum. […] In Table 6, the antibody titer of AJ-p242, AJ-p244, AJ-p347, or AJ-p361 is shown with the antibody titer of AJ-p150 as a control being 1 (logarithm). In addition, the antibody titers of AJ-p229, AJ-p237, and AJ-p298 are shown with the antibody titer of AJ-p54 as a control being 1 (logarithm).
The antibody-inducing ability of the AJ-human αSyn peptide conjugates with a modified linker with respect to human αSyn and aggregated human αSyn in the mice was evaluated using the antibody titers with respect to human αSyn and aggregated human αSyn of the mouse immune serum. […] In Table 8, the antibody titers of the AJ-human αSyn peptide conjugates with various modified linkers comprising p54 are shown with the antibody titer of AJ-p54 as a control being 1 (logarithm). In addition, the antibody titers of the AJ-human αSyn peptide conjugates with various modified linkers comprising p150 are shown with the antibody titer of AJ-p150 as a control being 1 (logarithm).

[1] = Example 9, mice, N = 4, titer of AJ-p150 or AJ-p54 as control being 1 (logarithm)
[2] = Example 10, modified linker, mice, titer of AJ-p54 or AJ-p150 as control being 1 (logarithm)
[3] = Example 9, N = 4, titer of AJ-p150 or AJ-p54 as control being 1 (logarithm)
[4] = Example 10, modified linker, titer of AJ-p54 or AJ-p150 as control being 1 (logarithm)

| Substance | Antibody titer with respect to human αSyn, relative to control (human αSyn; [2]) | Antibody titer with respect to aggregated human αSyn, relative to control (aggregated human αSyn; [4]) | other results |
| --- | --- | --- | --- |
| ELKLIFLHRLKRLRKRLKRKXKKDQLGANE (ELKLIFLHRLKRLRKRLKRK[Ahx]KKDQLGANE) [AJ-p142] |  |  | Antibody titer with respect to human αSyn (N = 4 − 6, mean ± standard deviation) (human αSyn): 4693 ± 6431; Antibody titer with respect to aggregated human αSyn (N = 4 − 6, mean ± standard deviation) (aggregated human αSyn): 576 ± 732 |
| ELKLIFLHRLKRLRKRLKRKXEAYEMPSEE (ELKLIFLHRLKRLRKRLKRK[Ahx]EAYEMPSEE) [AJ-p150, AJ peptide linked to p150 via ε-Acp (X)] | 1 | 1 | Antibody titer with respect to human αSyn (N = 4 − 6, mean ± standard deviation) (human αSyn): 2176 ± 1471; Antibody titer with respect to human αSyn, relative to control (human αSyn; [1]): 1; Antibody titer with respect to aggregated human αSyn (N = 4 − 6, mean ± standard deviation) (aggregated human αSyn): 576 ± 322; Antibody titer with respect to aggregated human αSyn, relative to control (aggregated human αSyn; [3]): 1 |
| ELKLIFLHRLKRLRKRLKRKDDAKKKKDQLGKNE [AJ-DDAKK-p54] | 1.03 | 0.98 |  |
| KKDQLGKNE-C-KLH (KKDQLGKNEC-{KLH}) [p54-KLH, KLH-human αSyn peptide conjugate] |  |  | Induction of the antibody to human αSyn (in words) (human αSyn; Example 3, mice): the antibody to human αSyn was induced; Antibody titer (N = 4 − 6, mean ± standard deviation) with respect to human αSyn (human αSyn; Example 3, mice, same manner as Example 2): 3072 ± 2748 |
| ELKLIFLHRLKRLRKRLKRKXEAAEMPSEEG (ELKLIFLHRLKRLRKRLKRK[Ahx]EAAEMPSEEG) [AJ-p244] |  |  | Antibody titer compared with control conjugate (in words) (human αSyn; Example 9, mice, human αSyn and aggregated human αSyn, control AJ-p150 or AJ-p54): same level of an antibody titer; Antibody titer with respect to human αSyn, relative to control (human αSyn; [1]): 1.06; Antibody titer with respect to aggregated human αSyn, relative to control (aggregated human αSyn; [3]): 1.10 |
| ELKLIFLHRLKRLRKRLKRKEAAAKKKDQLGKNE [AJ-EAAAK-p54] | 0.96 | 0.96 |  |
| ELKLIFLHRLKRLRKRLKRKGGGGSKKDQLGKNE [AJ-GGGGS-p54] | 1.05 | 1.02 |  |
| ELKLIFLHRLKRLRKRLKRKXKRDQLGKNE (ELKLIFLHRLKRLRKRLKRK[Ahx]KRDQLGKNE) [AJ-p227] |  |  | Antibody titer with respect to human αSyn (N = 4 − 6, mean ± standard deviation) (human αSyn): 4267 ± 3200; Antibody-inducing ability regarding the aggregated human αSyn (in words) (aggregated human αSyn; Example 2, balb/c mice): particularly strong antibody-inducing ability; Antibody titer with respect to aggregated human αSyn (N = 4 − 6, mean ± standard deviation) (aggregated human αSyn): 3072 ± 2748 |
| ELKLIFLHRLKRLRKRLKRKαKEAYEMPSEE [AJ-αK-p150] | 0.95 | 1.05 |  |
| ELKLIFLHRLKRLRKRLKRKPPDPDPEAYEMPSEE [AJ-PPDPDP-p150] | 1.33 | 1.37 |  |
| ELKLIFLHRLKRLRKRLKRKPPDPDPKKDQLGKNE [AJ-PPDPDP-p54] | 0.89 | 0.88 |  |
